Test results: US20240307362A1 (priority 2019, published 2024)
Where “and” joins values, the source holds several entries; their conditions need not be identical. Equal entries are not always repeated. Where two headings read alike, the source gives them in different places.

Tests used:
[1] = target: human Bub1 (Homo sapiens (Human), UniProt O43683); assay: Bub1 high ATP kinase assay (TR-FRET); type: biochemical
From the text: Bub1-inhibitory activity of compounds of the present invention at a high ATP concentration was quantified employing the Bub1 TR-FRET high ATP kinase assay as described in the following paragraphs.
N-terminally His6-tagged recombinant catalytic domain of human Bub1 (amino acids 704-1085), expressed in insect cells (Hi5) and purified by Ni-NTA affinity chromatography and subsequent size exclusion chromatography, was used as enzyme.

[2] = system: Ba/F3-EGFR-insSVD; assay: Ba/F3 cell survival assay, EGFR-insSVD; type: cell-based
Method: (§1) 293T cells from ATCC were transfected with pBABEpuro expression constructs for WT EGFR or EGFR-insSVD and pCL-Eco packaging vector using Fugene-6 transfection reagent from Promega. Plates were incubated at 37° C. for 48 h. Retrovirus was harvested by filtering the media supernatant through a 0.45 μm filter.
(§2) Ba/F3 cells purchased from DSMZ were grown in RPMI+10% FBS+10 ng/mL IL-3 and infected with filtered retroviral supernatant at a 1:2 dilution. Polybrene was added to a concentration of 8 μg/mL, plates were spun for 90 min, and incubated overnight at 37° C. 2 μg/mL puromycin was added to the infected cells 24 h after infection and cells were continually grown in the presence of puromycin and 10 ng/mL IL-3. Following stably expressing Ba/F3 cell lines were generated: Ba/F3-EGFR-WT, Ba/F3-EGFR-insSVD, (Ba/F3-vector-control).
For cell survival assays, Ba/F3 cells were grown to a density of 1-2 million cells per mL, spun down and resuspended in media without IL-3, and replated at a concentration 200,000-500,000 cells per mL. The cells ectopically expressing WT EGFR or EGFR-insSVD were plated with 10 ng/mL Millipore Culture grade EGF. The cells ectopically expressing pBABEpuro empty vector were plated with 10 ng/mL IL-3.
2 days later, cells were plated in 50 μL in a 384 well plate at a concentration of 4000 cells per well for cells assayed in the absence of IL-3 and 2000 cells per well for cells assayed in the presence of IL-3. 100 nL of compound was added to each well using a 100 nL pin head, and plates were incubated at 37° C. for 48 h.
Cell viability was measured by adding 20 μL of Cell Titer-Glo Luminescent Cell Viability Reagent diluted 1:3 in PBS. Plates were sealed with Perkin Elmer Top-Seal, inverted several times to mix, and immediately centrifuged at 1000 rpm for 2 min. Plates were incubated in low light conditions for 8-10 min and luminescence was measured.

[3] = system: Ba/F3-EGFR-WT; assay: Ba/F3 cell survival assay, WT EGFR; type: cell-based
Method: as §1, §2
The cells ectopically expressing WT EGFR or EGFR-insSVD were plated with 10 ng/mL Millipore Culture grade EGF. The cells ectopically expressing pBABEpuro empty vector were plated with 10 ng/mL IL-3.
100 nL of compound was added to each well using a 100 nL pin head, and plates were incubated at 37° C. for 48 h.
Cell viability was measured by adding 20 μL of Cell Titer-Glo Luminescent Cell Viability Reagent diluted 1:3 in PBS. Plates were sealed with Perkin Elmer Top-Seal, inverted several times to mix, and immediately centrifuged at 1000 rpm for 2 min.

[4] = read-out: Bub1 high ATP (2 mM) IC50, 2 mM ATP
[5] = read-out: BA/F3 (insSVD) IC50, cell viability, Cell Titer-Glo, 48 h, with 10 ng/mL EGF, without IL-3
[6] = read-out: BA/F3 (wild type) IC50, cell viability, Cell Titer-Glo, 48 h, with 10 ng/mL EGF, without IL-3
[7] = Mus musculus, BaF3, 48 h, read-out: BA/F3 (insSVD) IC50, cell viability, Cell Titer-Glo, 48 h, with 10 ng/mL EGF, without IL-3
[8] = Mus musculus, BaF3, 48 h, read-out: BA/F3 (wild type) IC50, cell viability, Cell Titer-Glo, 48 h, with 10 ng/mL EGF, without IL-3
[9] = Bub1 high ATP (2 mM) IC50, 2 mM ATP

human Bub1, sequence (O43683 704-1085): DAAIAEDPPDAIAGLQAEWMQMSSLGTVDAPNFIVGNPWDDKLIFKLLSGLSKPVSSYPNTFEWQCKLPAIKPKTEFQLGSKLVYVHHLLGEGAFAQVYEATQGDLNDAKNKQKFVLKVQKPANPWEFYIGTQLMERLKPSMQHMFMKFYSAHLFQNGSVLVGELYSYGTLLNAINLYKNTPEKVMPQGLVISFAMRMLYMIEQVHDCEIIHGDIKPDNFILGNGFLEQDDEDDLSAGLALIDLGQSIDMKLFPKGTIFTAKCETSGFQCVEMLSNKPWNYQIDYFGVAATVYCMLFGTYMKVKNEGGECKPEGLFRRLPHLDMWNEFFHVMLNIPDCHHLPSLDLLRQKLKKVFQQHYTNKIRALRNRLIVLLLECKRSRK

SMILES	IC50 [1, 4]	IC50 [2, 5]	IC50 [3, 6]	IC50 [2, 7]	IC50 [3, 8]	IC50 [1, 9]
CC1(COc2cnccc2-c2[nH]c3c(c2Nc2cccc(Cl)c2OC(F)F)C(=O)NCC3)CCO1 (single isomer, unassigned) [Example 76, 3-[3-chloro-2-(difluoromethoxy)anilino]-2-(3-{[2-methyloxetan-2-yl]methoxy}pyridin-4-yl)-1,5,6,7-tetrahydro-4H-pyrrolo[3,2-c]pyridin-4-one]	> 20 µM	0.291 µM	1.88 µM	–	–	–
Cc1cccc(Nc2c(-c3ccncc3OCC3OCC3(C)C)[nH]c3c2C(=O)NCC3)c1Cl (racemic) [Example 58, 3-(2-chloro-3-methylanilino)-2-{3-[(3,3-dimethyloxetan-2-yl)methoxy]pyridin-4-yl}-1,5,6,7-tetrahydro-4H-pyrrolo[3,2-c]pyridin-4-one]	> 20 µM	–	–	0.106 µM	1.43 µM	–
CCc1c(Cl)cccc1Nc1c(-c2ccncc2OCC2CCO2)[nH]c2c1C(=O)NCC2 (stereo not drawn) [Example 77, 3-(3-chloro-2-ethylanilino)-2-(3-{[oxetan-2-yl]methoxy}pyridin-4-yl)-1,5,6,7-tetrahydro-4H-pyrrolo[3,2-c]pyridin-4-one]	1.76 µM	–	–	0.0467 µM	0.777 µM	–
COc1c(Cl)cccc1Nc1c(-c2ccncc2OCC2(C)CCO2)[nH]c2c1C(=O)NCC2 (racemic) [Example 46, 3-(3-chloro-2-methoxyanilino)-2-{3-[(2-methyloxetan-2-yl)methoxy]pyridin-4-yl}-1,5,6,7-tetrahydro-4H-pyrrolo[3,2-c]pyridin-4-one]	10.2 µM	–	–	0.067 µM	0.966 µM	–
COc1c(F)cccc1Nc1c(-c2ccncc2OCC2(C)CCO2)[nH]c2c1C(=O)NCC2 (single isomer, unassigned; (-)) [Example 20, (−)-3-(3-fluoro-2-methoxyanilino)-2-{3-[(2-methyloxetan-2-yl)methoxy]pyridin-4-yl}-1,5,6,7-tetrahydro-4H-pyrrolo[3,2-c]pyridin-4-one]	11.8 µM and > 20 µM	–	–	–	–	14.5 µM
O=C1NCCc2[nH]c(-c3ccncc3OCC3CCO3)c(Nc3cccc(Cl)c3Cl)c21 (racemic) [Example 10, 3-(2,3-dichloroanilino)-2-{3-[(oxetan-2-yl)methoxy]pyridin-4-yl}-1,5,6,7-tetrahydro-4H-pyrrolo[3,2-c]pyridin-4-one]	13.8 µM	–	–	0.0659 µM	1.04 µM	–
Cc1cccc(Nc2c(-c3ccncc3OCC3CCO3)[nH]c3c2C(=O)NCC3)c1Cl (racemic) [Example 37, 3-(2-chloro-3-methylanilino)-2-{3-[(oxetan-2-yl)methoxy]pyridin-4-yl}-1,5,6,7-tetrahydro-4H-pyrrolo[3,2-c]pyridin-4-one]	11.7 µM	–	–	0.105 µM	0.942 µM	–
COc1c(Cl)cccc1Nc1c(-c2ccncc2OCC2OCC2(C)C)[nH]c2c1C(=O)NCC2 (single isomer, unassigned; (-)) [Example 51, (−)-3-(3-chloro-2-methoxyanilino)-2-{3-[(3,3-dimethyloxetan-2-yl)methoxy]pyridin-4-yl}-1,5,6,7-tetrahydro-4H-pyrrolo[3,2-c]pyridin-4-one]	17.1 µM and 17.3 µM and > 20 µM	0.153 µM	1.05 µM	–	–	–
O=C1NCCc2[nH]c(-c3ccncc3OCC3CCO3)c(Nc3cccc(Cl)c3Cl)c21 (single isomer, unassigned; (+)) [Example 11, (+)-3-(2,3-dichloroanilino)-2-{3-[(oxetan-2-yl)methoxy]pyridin-4-yl}-1,5,6,7-tetrahydro-4H-pyrrolo[3,2-c]pyridin-4-one]	> 20 µM	–	–	0.147 µM	0.767 µM	–
COc1c(F)cccc1Nc1c(-c2ccncc2OCC2(F)COC2)[nH]c2c1C(=O)NCC2 [Example 61, 3-(3-fluoro-2-methoxyanilino)-2-{3-[(3-fluorooxetan-3-yl)methoxy]pyridin-4-yl}-1,5,6,7-tetrahydro-4H-pyrrolo[3,2-c]pyridin-4-one]	> 20 µM	–	–	0.445 µM	3.57 µM	–
CC1(C)COC1COc1cnccc1-c1[nH]c2c(c1Nc1cccc(Cl)c1OC(F)F)C(=O)NCC2 (racemic) [Example 71, 3-[3-chloro-2-(difluoromethoxy)anilino]-2-(3-{[3,3-dimethyloxetan-2-yl]methoxy}pyridin-4-yl)-1,5,6,7-tetrahydro-4H-pyrrolo[3,2-c]pyridin-4-one]	> 20 µM	–	–	0.122 µM	–	–
COc1c(F)cccc1Nc1c(-c2ccncc2OC[C@@H]2CCO2)[nH]c2c1C(=O)NCC2 [Example 5, 3-(3-fluoro-2-methoxyanilino)-2-(3-{[(2S)-oxetan-2-yl]methoxy}pyridin-4-yl)-1,5,6,7-tetrahydro-4H-pyrrolo[3,2-c]pyridin-4-one]	> 20 µM	–	–	0.0224 µM	0.578 µM	–
COc1c(F)cccc1Nc1c(-c2ccncc2OC[C@H]2CCO2)[nH]c2c1C(=O)NCC2 [Example 6, 3-(3-fluoro-2-methoxyanilino)-2-(3-{[(2R)-oxetan-2-yl]methoxy}pyridin-4-yl)-1,5,6,7-tetrahydro-4H-pyrrolo[3,2-c]pyridin-4-one]	> 13.3 µM	–	–	0.276 µM	–	–
COc1c(Cl)cc(F)cc1Nc1c(-c2ccncc2OCC2CCO2)[nH]c2c1C(=O)NCC2 (single isomer, unassigned) [Example 67, 3-(3-chloro-5-fluoro-2-methoxyanilino)-2-(3-{[oxetan-2-yl]methoxy}pyridin-4-yl)-1,5,6,7-tetrahydro-4H-pyrrolo[3,2-c]pyridin-4-one]	> 20 µM	–	5.68 µM	–	–	–
O=C1NCCc2[nH]c(-c3ccncc3OCC3CCO3)c(Nc3cccc4c3CCC4)c21 (stereo not drawn) [Example 36, 3-[(2,3-dihydro-1H-inden-4-yl)amino]-2-{3-[(oxetan-2-yl)methoxy]pyridin-4-yl}-1,5,6,7-tetrahydro-4H-pyrrolo[3,2-c]pyridin-4-one]	> 20 µM	–	–	0.377 µM	–	–
COc1c(F)cccc1Nc1c(-c2ccncc2OCC2OCC2(C)C)[nH]c2c1C(=O)NCC2 (single isomer, unassigned; (-)) [Example 53, (−)-2-{3-[(3,3-dimethyloxetan-2-yl)methoxy]pyridin-4-yl}-3-(3-fluoro-2-methoxyanilino)-1,5,6,7-tetrahydro-4H-pyrrolo[3,2-c]pyridin-4-one]	> 20 µM	–	1.13 µM	–	–	–
CC1(COc2cnccc2-c2[nH]c3c(c2Nc2cccc(Cl)c2OC(F)F)C(=O)NCC3)CCO1 (single isomer, unassigned) [Example 75, 3-[3-chloro-2-(difluoromethoxy)anilino]-2-(3-{[2-methyloxetan-2-yl]methoxy}pyridin-4-yl)-1,5,6,7-tetrahydro-4H-pyrrolo[3,2-c]pyridin-4-one]	–	–	–	0.305 µM	–	> 20 µM
COc1c(Cl)cccc1Nc1c(-c2ccncc2OC[C@H]2CCO2)[nH]c2c1C(=O)NCC2 [Example 3, 3-(3-chloro-2-methoxyanilino)-2-(3-{[(2R)-oxetan-2-yl]methoxy}pyridin-4-yl)-1,5,6,7-tetrahydro-4H-pyrrolo[3,2-c]pyridin-4-one]	4.51 µM	–	–	0.136 µM	–	–
COc1c(Cl)cccc1Nc1c(-c2ccncc2OCC2CCO2)[nH]c2c1C(=O)NCC2 (stereo not drawn) [Example 1, 3-(3-chlor-2-methoxyanilino)-2-[3-(oxetan-2-ylmethoxy)pyridin-4-yl]-1,5,6,7-tetrahydro-4H-pyrrolo[3,2-c]pyridin-4-on]	–	–	–	0.0251 µM	0.789 µM	–
